The structures appear in SMILES notation.

For this assay, the target named is LRRK2 (Homo sapiens (Human), UniProt Q5S007, G2019S). The experiment in a line: In Vitro LRRK2 LabChip Assay (LRRK2 Ki). Format: biochemical. As for the experimental part: In Vitro LRRK2 LabChip Assay This assay was used to determine a compound's potency in inhibiting activity of LRRK2 by determining, Kiapp, IC50, or percent inhibition values. In a polypropylene plate, LRRK2, fluorescently-labeled peptide substrate, ATP and test compound were incubated together. Using a LabChip 3000 (Caliper Life Sciences), after the reaction the substrate was separated by capillary electrophoresis into two populations: phosphorylated and unphosphorylated. The relative amounts of each were quantitated by fluorescence intensity. LRRK2 Ki was determined according to the equation: […]))). Ki values in Table 4 and elsewhere herein are shown in μM. […] Substrate: 5[…] Non-binding plate: 384 well clear V-bottom polypropylene plates (Greiner cat #781280). ATP: 10 mM ATP (Cell Signaling cat #9804). Triton X-100: Triton X-100. Brij-35: Brij-35 (Pierce cat #20150). […] DMSO: DMSO (Sigma cat #34869-100 ML). […] Compound Plate Preparation: For serial dilutions, 34.6 μl DMSO was added to columns 3-24. For the assay controls, 37.5 μl DMSO was added to columns 1 and 2 of rows A and […]-028831 (Staurosporine) was added to columns 1 and 2, row B. […] A Precision instrument was used to perform 1:3.16 serial dilutions (“PLK_BM_serial_halflog”). ATP Preparation: ATP was diluted to 282.1 μM in Complete Kinase Buffer (final concentration was 130 μM). […] Assay Procedure: To a 50 μl polypropylene plate, 5 μl/well buffer/substrate was added by hand to Blank wells. A Biomek FX was used to start the kinase reaction (“PLK SAR 23 ATP”). […] 5 μl/well kinase/substrate in Assay Plate; The plate was incubated for 2 hours in the dark. Biomek FX was used to stop the kinase reaction (“PLK Stop”), and 10 μl/well Stop solution was added to the Assay Plate.
LRRK2, sequence (Q5S007 970-2527 G2019S): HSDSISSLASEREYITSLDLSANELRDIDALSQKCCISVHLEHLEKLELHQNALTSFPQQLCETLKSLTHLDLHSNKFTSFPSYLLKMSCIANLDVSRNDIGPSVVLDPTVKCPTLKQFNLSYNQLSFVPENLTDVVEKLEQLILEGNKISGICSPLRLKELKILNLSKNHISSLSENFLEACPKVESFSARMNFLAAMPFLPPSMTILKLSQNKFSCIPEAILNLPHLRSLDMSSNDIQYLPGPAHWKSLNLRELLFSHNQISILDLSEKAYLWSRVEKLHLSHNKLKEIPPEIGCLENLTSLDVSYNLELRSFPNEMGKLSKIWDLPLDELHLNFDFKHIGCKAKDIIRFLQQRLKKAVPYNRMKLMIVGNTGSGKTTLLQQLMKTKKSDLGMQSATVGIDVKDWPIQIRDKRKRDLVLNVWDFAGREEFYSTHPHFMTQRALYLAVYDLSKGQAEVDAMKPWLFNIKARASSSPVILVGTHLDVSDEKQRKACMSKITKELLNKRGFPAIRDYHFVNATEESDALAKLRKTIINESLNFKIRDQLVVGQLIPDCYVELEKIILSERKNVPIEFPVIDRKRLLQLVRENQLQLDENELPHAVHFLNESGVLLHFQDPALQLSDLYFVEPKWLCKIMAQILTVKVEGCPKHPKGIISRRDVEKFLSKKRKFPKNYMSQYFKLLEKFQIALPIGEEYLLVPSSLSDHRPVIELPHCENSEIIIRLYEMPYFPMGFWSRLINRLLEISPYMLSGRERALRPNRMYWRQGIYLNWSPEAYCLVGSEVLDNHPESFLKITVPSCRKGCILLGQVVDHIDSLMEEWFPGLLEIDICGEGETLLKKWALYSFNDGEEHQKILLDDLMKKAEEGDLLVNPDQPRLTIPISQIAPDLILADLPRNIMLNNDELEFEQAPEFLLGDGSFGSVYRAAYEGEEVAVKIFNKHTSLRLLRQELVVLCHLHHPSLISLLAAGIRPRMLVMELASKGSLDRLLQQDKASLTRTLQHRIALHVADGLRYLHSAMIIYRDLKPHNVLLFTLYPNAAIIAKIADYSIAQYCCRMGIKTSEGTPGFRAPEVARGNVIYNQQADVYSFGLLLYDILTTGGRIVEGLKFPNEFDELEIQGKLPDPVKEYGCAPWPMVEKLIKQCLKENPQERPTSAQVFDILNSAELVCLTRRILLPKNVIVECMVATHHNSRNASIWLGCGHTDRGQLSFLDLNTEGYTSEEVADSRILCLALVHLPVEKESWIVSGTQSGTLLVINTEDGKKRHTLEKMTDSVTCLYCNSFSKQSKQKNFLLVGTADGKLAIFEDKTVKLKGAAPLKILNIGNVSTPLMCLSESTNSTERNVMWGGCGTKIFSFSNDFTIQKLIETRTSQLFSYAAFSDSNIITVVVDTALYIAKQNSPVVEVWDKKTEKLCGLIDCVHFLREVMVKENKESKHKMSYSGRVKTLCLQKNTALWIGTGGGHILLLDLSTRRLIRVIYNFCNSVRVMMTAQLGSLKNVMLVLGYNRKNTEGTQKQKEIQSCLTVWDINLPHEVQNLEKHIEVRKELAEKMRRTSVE
For the compound `CNc1nc(Nc2ccc(-c3nnn[nH]3)cc2Cl)ncc1C(F)(F)F` [Compound 1, N2-(2-chloro-4-(2H-tetrazol-5-yl)phenyl)-N4-methyl-5-(trifluoromethyl) pyrimidine-2,4-diamine], the inhibition constant Ki (in general, the dissociation constant of the complex between target and ligand, obtained from inhibition or displacement) stood at 3 nM.
As for `CNc1nc(Nc2ccc(-c3nnnn3C)cc2Cl)ncc1C(F)(F)F` [Compound 2, N2-(2-chloro-4-(1-methyl-1H-tetrazol-5-yl)phenyl)-N4-methyl-5-(trifluoromethyl) pyrimidine-2,4-diamine], affinity was put at a Ki of 7 nM.
Consider `CNc1nc(Nc2ccc(-c3nnn(C)n3)cc2Cl)ncc1C(F)(F)F` [Compound 3, N2-(2-chloro-4-(2-methyl-2H-tetrazol-5-yl)phenyl)-N4-methyl-5-(trifluoromethyl) pyrimidine-2,4-diamine], for which the Ki came out at 18 nM.
As for `CNc1nc(Nc2ccc(-n3cncn3)cc2OC)ncc1C(F)(F)F` [Compound 4, N2-(2-methoxy-4-(1H-1,2,4-triazol-1-yl)phenyl)-N4-methyl-5-(trifluoromethyl) pyrimidine-2,4-diamine], the figure is 3 nM; as for `CNc1nc(Nc2ccc(-c3cnn(C)c3)cc2OC)ncc1C(F)(F)F` [Compound 5, N2-(2-methoxy-4-(1-methyl-1H-pyrazol-4-yl)phenyl)-N4-methyl-5-(trifluoromethyl) pyrimidine-2,4-diamine], 4 nM; as for `CNc1nc(Nc2cc(F)c(-c3nc(C)no3)cc2OC)ncc1C(F)(F)F` [Compound 6, N2-(5-fluoro-2-methoxy-4-(3-methyl-1,2,4-oxadiazol-5-yl)phenyl)-N4-methyl-5-(trifluoromethyl) pyrimidine-2,4-diamine], 32 nM.
Consider `CNc1nc(Nc2cc(OC)c(-c3nnc(C)o3)cc2Cl)ncc1C(F)(F)F` [Compound 7, N2-(2-chloro-5-methoxy-4-(5-methyl-1,3,4-oxadiazol-2-yl)phenyl)-N4-methyl-5-(trifluoromethyl) pyrimidine-2,4-diamine], for which the Ki turned out to be 8 nM.
In the case of `CNc1nc(Nc2ccc(-c3cncn3C)cc2OC)ncc1C(F)(F)F` [Compound 8], the inhibitory constant (Ki) is 2 nM. This Ki is about 4-fold lower than that of the compound before.
In turn, `CNc1nc(Nc2ccc(-c3nnnn3C)cc2OC)ncc1Cl` [Compound 10, 5-chloro-N^2-(2-methoxy-4-(1-methyl-1H-tetrazol-5-yl)phenyl)-N^4-methylpyrimidine-2,4-diamine] showed a Ki of 7 nM.
The compound `CNc1nc(Nc2cc(OC)c(-c3cnnn3C)cc2Cl)ncc1C(F)(F)F` [Compound 11, N^2-(2-chloro-5-methoxy-4-(1-methyl-1H-1,2,3-triazol-5-yl)phenyl)-N^4-methyl-5-(trifluoromethyl) pyrimidine-2,4-diamine] returned an inhibition constant (Ki) of 4 nM.
In turn, `CNc1nc(Nc2ccc(-c3cnoc3)cc2OC)ncc1Cl` [Compound 14, 5-chloro-N^2-(4-(isoxazol-4-yl)-2-methoxyphenyl)-N^4-methylpyrimidine-2,4-diamine] yielded a Ki of 15 nM.
The compound `CNc1nc(Nc2ccc(-c3nccn3C)cc2OC)ncc1Cl` [Compound 15, 5-chloro-N^2-(2-methoxy-4-(1-methyl-1H-imidazol-2-yl)phenyl)-N^4-methylpyrimidine-2,4-diamine] registered an inhibition constant Ki of 7 nM.
In turn, `CNc1nc(Nc2ccc(-c3cncn3C)cc2OC)ncc1Cl` [Compound 16, 5-chloro-N2-(2-methoxy-4-(1-methyl-1H-imidazol-5-yl)phenyl)-N4-methylpyrimidine-2,4-diamine] returned a Ki of 2 nM.
As for `CNc1nc(Nc2ccc(-c3cnnn3C)cc2OC)ncc1C(F)(F)F` [Compound 17, N^2-(2-methoxy-4-(1-methyl-1H-1,2,3-triazol-5-yl)phenyl)-N^4-methyl-5-(trifluoromethyl) pyrimidine-2,4-diamine], the figure is 2 nM; as for `CNc1nc(Nc2ccc(-c3nnn(C)n3)cc2OC)ncc1C(F)(F)F` [Compound 18, N^2-(2-methoxy-4-(2-methyl-2H-tetrazol-5-yl)phenyl)-N^4-methyl-5-(trifluoromethyl) pyrimidine-2,4-diamine], 10 nM.
In turn, `CNc1nc(Nc2cc(OC)c(-c3nccn3C)cc2Cl)ncc1C(F)(F)F` [Compound 19, N^2-(2-chloro-5-methoxy-4-(1-methyl-1H-imidazol-2-yl)phenyl)-N^4-methyl-5-(trifluoromethyl) pyrimidine-2,4-diamine] yielded a Ki of 3 nM. This Ki lies about 3.3-fold lower than the previous one.
`CNc1nc(Nc2ccc(-c3nnnn3C)cc2OC)ncc1C(F)(F)F` [Compound 20, N^2-(2-methoxy-4-(1-methyl-1H-tetrazol-5-yl)phenyl)-N^4-methyl-5-(trifluoromethyl) pyrimidine-2,4-diamine] had an inhibitory constant (Ki) of 3 nM.
On to `CNc1nc(Nc2cc(OC)c(-c3cncn3C)cc2Cl)ncc1C(F)(F)F` [Compound 21, N^2-(2-chloro-5-methoxy-4-(1-methyl-1H-imidazol-5-yl)phenyl)-N^4-methyl-5-(trifluoromethyl) pyrimidine-2,4-diamine], for which affinity was put at a Ki of 3 nM. That is a single-digit nanomolar value.
Compound `CNc1nc(Nc2cc(F)c(-c3nnnn3C)cc2OC)ncc1C(F)(F)F` [Compound 22, N^2-(5-fluoro-2-methoxy-4-(1-methyl-1H-tetrazol-5-yl)phenyl)-N^4-methyl-5-(trifluoromethyl) pyrimidine-2,4-diamine] had a Ki of 10 nM. This Ki lies about 3.3-fold higher than the previous one.
The compound `CNc1nc(Nc2ccc(-c3cnnn3C)cc2OC)ncc1Cl` [Compound 23, 5-chloro-N^2-(2-methoxy-4-(1-methyl-1H-1,2,3-triazol-5-yl)phenyl)-N^4-methylpyrimidine-2,4-diamine] returned a Ki of 3 nM.
`CNc1nc(Nc2cc(OC)c(-c3c(C)nn(C)c3C)cc2Cl)ncc1C(F)(F)F` [Compound 24, N^2-(2-chloro-5-methoxy-4-(1,3,5-trimethyl-1H-pyrazol-4-yl)phenyl)-N^4-methyl-5-(trifluoromethyl) pyrimidine-2,4-diamine] registered an inhibitory constant (Ki) of 3 nM.
As for `CNc1nc(Nc2ccc(-c3ccnn3C)cc2OC)ncc1C(F)(F)F` [Compound 25, N^2-(2-methoxy-4-(1-methyl-1H-pyrazol-5-yl)phenyl)-N^4-methyl-5-(trifluoromethyl) pyrimidine-2,4-diamine], the inhibition constant Ki was found to be 1 nM. Against the preceding compound, the Ki is about 3-fold lower.
As to `CNc1nc(Nc2ccc(-c3c(C)noc3C)cc2OC)ncc1C(F)(F)F` [Compound 26, N^2-(4-(3,5-dimethylisoxazol-4-yl)-2-methoxyphenyl)-N^4-methyl-5-(trifluoromethyl) pyrimidine-2,4-diamine], the inhibition constant Ki worked out at 1 nM.
The compound `CNc1nc(Nc2ccc(-n3cnnn3)cc2OC)ncc1C(F)(F)F` [Compound 27, N^2-(2-methoxy-4-(1H-tetrazol-1-yl)phenyl)-N^4-methyl-5-(trifluoromethyl) pyrimidine-2,4-diamine] came in with an inhibition constant Ki of 2 nM.
Then `CNc1nc(Nc2cc(OC)c(-c3ccnn3C)cc2Cl)ncc1C(F)(F)F` [Compound 28, N^2-(2-chloro-5-methoxy-4-(1-methyl-1H-pyrazol-5-yl)phenyl)-N^4-methyl-5-(trifluoromethyl) pyrimidine-2,4-diamine], with 5 nM; and `CCNc1nc(Nc2cc(F)c(-c3nnc(C)o3)cc2OC)ncc1C(F)(F)F` [Compound 29, N^4-ethyl-N^2-(5-fluoro-2-methoxy-4-(5-methyl-1,3,4-oxadiazol-2-yl)phenyl)-5-(trifluoromethyl) pyrimidine-2,4-diamine], with 7 nM.
`CNc1nc(Nc2cc(F)c(-c3nnc(C)o3)cc2OC)ncc1C(F)(F)F` [Compound 30, N^2-(5-fluoro-2-methoxy-4-(5-methyl-1,3,4-oxadiazol-2-yl)phenyl)-N^4-methyl-5-(trifluoromethyl) pyrimidine-2,4-diamine] returned an inhibition constant Ki of 12 nM.
In turn, `CNc1nc(Nc2cc(OC)c(-c3nc(C)no3)cc2Cl)ncc1C(F)(F)F` [Compound 31, N^2-(2-chloro-5-methoxy-4-(3-methyl-1,2,4-oxadiazol-5-yl)phenyl)-N^4-methyl-5-(trifluoromethyl) pyrimidine-2,4-diamine] yielded a Ki of 41 nM. This Ki lies about 3.4-fold higher than the previous one.
As for `CNc1nc(Nc2cc(OC)c(-c3cnn(C)c3)cc2Cl)ncc1C(F)(F)F` [Compound 32, N^2-(2-chloro-5-methoxy-4-(1-methyl-1H-pyrazol-4-yl)phenyl)-N^4-methyl-5-(trifluoromethyl) pyrimidine-2,4-diamine], the figure is 11 nM.
`CNc1nc(Nc2ccc(-c3nnc(C)o3)cc2Cl)ncc1Cl` [Compound 33, 5-chloro-N^2-(2-chloro-4-(5-methyl-1,3,4-oxadiazol-2-yl)phenyl)-N^4-methylpyrimidine-2,4-diamine] showed an inhibition constant Ki of 30 nM.
Compound `CNc1nc(Nc2ccc(-c3nc(C)no3)cc2Cl)ncc1Cl` [Compound 34, 5-chloro-N^2-(2-chloro-4-(3-methyl-1,2,4-oxadiazol-5-yl)phenyl)-N^4-methylpyrimidine-2,4-diamine] came in with a Ki of 80 nM. This Ki lies about 2.7-fold higher than the previous one.
For `CNc1nc(Nc2ccc(-c3cnn(C)c3)cc2OC)ncc1Cl` [Compound 35, 5-chloro-N^2-(2-methoxy-4-(1-methyl-1H-pyrazol-4-yl)phenyl)-N^4-methylpyrimidine-2,4-diamine], the inhibition constant (Ki) was found to be 2 nM.

(Values after US8791130B2, “Aminopyrimidine derivatives as LRRK2 modulators” (Genentech, Inc., priority 2011, dated 2014).)
